{
  "source": "patent US5696276A",
  "about": "“Process for preparing 5,8-dihydroxynaphthoquinone derivatives, novel 5,8-dihydroxynaphthoquinone derivatives and their use as anticancer agent” (Kuhnil Pharmaceutical Co., Ltd., priority 1993, dated 1997)",
  "key": {"S-180 sarcoma": {"tested_on": "S-180 sarcoma", "settings": "Kor. J. Pharm. Soc., 34, 262-266 (1990); cited from earlier work"}, "S-180 sarcoma cells": {"tested_on": "S-180 sarcoma cells", "test": "Animal experiment using Sarcoma S-180 cells (survival of mouse)", "type": "in vivo, male ICR mouse", "settings": "for responders at 15 µmol/kg / response vs control in vivo at 15 µmol/kg: daily dose 15 μmole (mg/kg/day given per compound); for responders at 15 µmol/kg / responders at 10 µmol/kg: read-out: Number of mouse survived for 50 days (converted); for responders at 10 µmol/kg / response vs control in vivo at 10 µmol/kg: daily dose 10 μmole (mg/kg/day given per compound)", "method_in_brief": "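Male ICR mice (20 to 25 g) received intraperitoneal transplants of 0.1 ml S-180 cell suspension (10^7 cells/ml), prepared from ascites by washing in cold physiological saline. After 24 hours, groups of 8 to 9 mice received 7 to 8 ip injections of sample in dimethylsulfoxide diluted with saline. Controls got 2% dimethylsulfoxide-saline. Survival (T/C, %) was scored against control death.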"}, "L1210 cells [1]": {"tested_on": "L1210 cells", "test": "Cytotoxic activity against L1210 cells", "type": "cell-based", "settings": "Mus musculus; L1210 cells, 48 hours, 37° C.; read-out: ED50, cytotoxic activity against L1210", "method_in_brief": "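Log-phase L1210 cells (5×10^4 cells/ml) in Fisher medium exposed 48 h at 37 °C in CO2 to three dilutions of sample dissolved in ethanol or DMSO. Cells counted by haemacytometer; growth relative to control; ED50 (μg/ml) from linear regression of growth % on log concentration.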"}, "L1210 cells [2]": {"tested_on": "L1210 cells", "settings": "Kor. J. Pharm. Soc., 34, 262-266 (1990); cited from earlier work"}, "A549 cancer cells": {"tested_on": "A549 cancer cells", "test": "Cytotoxic activity against A549 cancer cells (sulforhodamin B method)", "type": "cell-based", "settings": "Homo sapiens; A549 cells, SRB method, 48 hours; read-out: ED50, cytotoxic activity against A549", "method_in_brief": "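Cells seeded at 8×10^4 per well, attached 24 h, then exposed 48 h to six log-spaced concentrations in triplicate. TCA-fixed, SRB-stained, OD read at 520 nm; growth inhibition computed relative to time-zero and untreated counts, IC50 from regression.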"}, "HL-60 cells": {"tested_on": "HL-60 cells", "test": "Cytotoxic activity against HL-60 cells", "type": "cell-based", "settings": "Homo sapiens; HL-60 cells, 48 hours, 37° C.; read-out: ED50, cytotoxic activity against HL-60", "method": "As in the test for the cytotoxic activity against L1210 cells, the test samples were dissoved in ethanol or dimethylsulfoxide in a certain concentration. 0.1 ml of the sample solution was mixed with 0.9 ml of a fresh medium to prepare the dilutions. To each two test tubes having a screw cap were added 100, 50, 25 μl, respectively, of the sample dilutions by means of a micropipet. To each test tube for the test group and the control group (2√n: n=number of the samples) was added 5 ml of the dilutions of HL-60 cells and K-562 cells which were cultured and activated before 24 hours from the beginning of experiment and then diluted in a concentration of 1×10^5 cells/mi. All test tubes were cultured for 48 hours in a CO2 incubator at 37° C. and then the number of cells was counted using a haemacytometer.\nThe ED50 value is defined as a concentration (μg/ml) of the sample which inhibits the growth of cancer cells by 50% of the control group and determined according to a method described in NIC's mannual (NIC=National Cancer Institue, U.S.A.). The growth rate Y(%) of cells in the presence of the test sample in each concentration was calculated according to the followign equation: […]\nIn the above equation, T means the average cell number per ml in the test group after incubation for 48 hours in the presence of the test samples in each concentration, C means the average cell number per ml in the control group after incubation for 48 hours, and Co means the average cell number per ml in the control group at the beginning of incubation. The Y(%) value at each concentration and log10 value of each concentration were obtained and the regression curve was constructed according to the following equation from those obtained values. In this case, when all the Y(%) value obtained at each concentration is greater than 55% or lower than 45%, the experiment was repeatedly conducted.\nTo construct the regression curve Y=A+BX the values A and B were obtained using the following equation. [formula]\nIn the above, the value N is the number of selected points which is greater than 2 and lower than, or identical with, the number of cencentration of the test sample, Xi is log(concentration) i, and Yi is the growth ratio at (concentration)i. The value of ED50 was obtained for those obtained slope and intercept."}, "S-180 ascitic cancer": {"tested_on": "S-180 ascitic cancer", "settings": "mouse suffering from S-180 ascitic cancer; Chem. Pharm. Bull. 25, 2392-2395 (1977); cited from earlier work"}, "L1210 cancer": {"tested_on": "L1210 cancer", "settings": "Chem. Pharm. Bull. 25, 2392-2395 (1977); cited from earlier work"}, "K-562 cells": {"tested_on": "K-562 cells", "test": "Cytotoxic activity against K-562 cells", "type": "cell-based", "settings": "Homo sapiens, K562, 48 h, read-out: ED50, cytotoxic activity against K562", "method_in_brief": "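HL-60 and K-562 cells (1×10^5 cells/ml) incubated 48 h at 37° C with sample dilutions from ethanol or DMSO stocks; cells counted by haemacytometer. ED50 (μg/ml) is the concentration giving 50% growth inhibition versus control, taken from linear regression of growth rate against log concentration.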"}, "[3]": {"settings": "ip, 1200 h, S-180 ICR mouse, intraperitoneal, 7 to 8 injections"}, "[4]": {"settings": "ip, S-180 ICR mouse, intraperitoneal, 7 to 8 injections, read-out: T/C"}},
  "data": [
    {"smiles": "CC(=O)OC(CC=C(C)C)C1=CC(=O)c2c(O)ccc(O)c2C1=O", "note": "(stereo not drawn) [2-(1-acetyloxy-4-methyl-3-pentenyl)-5,8-dihydroxy-1,4-naphthoquinone]", "values": [
      {"measurement": "LSI in mouse suffering from S-180 sarcoma", "setting": "S-180 sarcoma", "result": 85, "unit": "%"},
      {"measurement": "responders at 5 µmol/kg", "setting": "S-180 sarcoma cells; Mus musculus, S-180, ip, 1200 h, read-out: Number of mouse survived for 50 days", "result": 0, "unit": "%"},
      {"measurement": "response vs control in vivo at 5 µmol/kg", "setting": "S-180 sarcoma cells; ip, S-180 ICR mouse, intraperitoneal, daily dose 5 μmole (mg/kg/day given per compound), 7 to 8 injections, read-out: T/C", "result": 160, "unit": "%"},
      {"measurement": "IC50", "setting": "L1210 cells [1]", "result": "< 0.01", "unit": "µg/mL"},
      {"measurement": "ED50 value against L1210 cells", "setting": "L1210 cells [2]", "result": 0.01, "unit": "µg/mL"},
      {"measurement": "IC50", "setting": "A549 cancer cells", "result": 1, "unit": "µg/mL"},
      {"measurement": "IC50", "setting": "HL-60 cells", "result": 0.06, "unit": "µg/mL"}
    ]},
    {"smiles": "CC(C)=CC[C@@H](O)C1=CC(=O)c2c(O)ccc(O)c2C1=O", "note": "[shikonin]", "values": [
      {"measurement": "increase in life span (LSI)", "setting": "S-180 ascitic cancer", "result": 92, "unit": "%"},
      {"measurement": "effect in mouse suffering from L1210 cancer", "setting": "L1210 cancer", "result": "does not show a significant effect"}
    ]},
    {"smiles": "O=c1[nH]cc(F)c(=O)[nH]1", "note": "[5-Fluorouracil, reference compound]", "values": [
      {"measurement": "IC50", "setting": "L1210 cells [1]", "result": 0.02, "unit": "µg/mL"},
      {"measurement": "IC50", "setting": "A549 cancer cells", "result": 3.7, "unit": "µg/mL"},
      {"measurement": "IC50", "setting": "HL-60 cells", "result": 0.2, "unit": "µg/mL"},
      {"measurement": "IC50", "setting": "K-562 cells", "result": 1, "unit": "µg/mL"}
    ]},
    {"smiles": "CCCCCCCC/C=C\\CCCCCCCC(=O)OC(CC=C(C)C)C1=CC(=O)c2c(O)ccc(O)c2C1=O", "note": "(stereo not drawn)", "values": [
      {"measurement": "responders at 15 µmol/kg", "setting": "S-180 sarcoma cells; [3]", "result": 0, "unit": "%"},
      {"measurement": "response vs control in vivo at 15 µmol/kg", "setting": "S-180 sarcoma cells; [4]", "result": 130, "unit": "%"},
      {"measurement": "IC50", "setting": "L1210 cells [1]", "result": 2.4, "unit": "µg/mL"},
      {"measurement": "IC50", "setting": "A549 cancer cells", "result": "> 20", "unit": "µg/mL"},
      {"measurement": "IC50", "setting": "HL-60 cells", "result": 9.6, "unit": "µg/mL"}
    ]},
    {"smiles": "CCCCCC(=O)OC(CC=C(C)C)C1=CC(=O)c2c(O)ccc(O)c2C1=O", "note": "(stereo not drawn) [2-(1-n-hexanoyloxy-4-methyl-3-pentenyl)-5,8-dihydroxy-1,4-naphthoquinone]", "values": [
      {"measurement": "responders at 10 µmol/kg", "setting": "S-180 sarcoma cells; [3]", "result": 33.3, "unit": "%"},
      {"measurement": "response vs control in vivo at 10 µmol/kg", "setting": "S-180 sarcoma cells; [4]", "result": 214, "unit": "%"},
      {"measurement": "IC50", "setting": "L1210 cells [1]", "result": 0.2, "unit": "µg/mL"},
      {"measurement": "IC50", "setting": "A549 cancer cells", "result": 2.6, "unit": "µg/mL"},
      {"measurement": "IC50", "setting": "HL-60 cells", "result": 0.7, "unit": "µg/mL"}
    ]},
    {"smiles": "CCCCCCCCC(=O)OC(CC=C(C)C)C1=CC(=O)c2c(O)ccc(O)c2C1=O", "note": "(stereo not drawn) [2-(1-n-nonanoyloxy-4-methyl-3-pentenyl)-5,8-dihydroxy-1,4-naphthoquinone]", "values": [
      {"measurement": "responders at 10 µmol/kg", "setting": "S-180 sarcoma cells; [3]", "result": 0, "unit": "%"},
      {"measurement": "response vs control in vivo at 10 µmol/kg", "setting": "S-180 sarcoma cells; [4]", "result": 206, "unit": "%"},
      {"measurement": "IC50", "setting": "L1210 cells [1]", "result": 0.5, "unit": "µg/mL"},
      {"measurement": "IC50", "setting": "A549 cancer cells", "result": 6.9, "unit": "µg/mL"},
      {"measurement": "IC50", "setting": "HL-60 cells", "result": 1, "unit": "µg/mL"}
    ]},
    {"smiles": "CC/C=C/C(=O)OC(CC=C(C)C)C1=CC(=O)c2c(O)ccc(O)c2C1=O", "note": "(stereo not drawn) [2-[1-(trans-2-pentenoyloxy)-4-methyl-3-pentenyl]-5,8-dihydroxy-1,4-naphthoquinone]", "values": [
      {"measurement": "responders at 15 µmol/kg", "setting": "S-180 sarcoma cells; [3]", "result": 14.3, "unit": "%"},
      {"measurement": "response vs control in vivo at 15 µmol/kg", "setting": "S-180 sarcoma cells; [4]", "result": 210, "unit": "%"},
      {"measurement": "IC50", "setting": "L1210 cells [1]", "result": 0.4, "unit": "µg/mL"},
      {"measurement": "IC50", "setting": "A549 cancer cells", "result": 1.1, "unit": "µg/mL"},
      {"measurement": "IC50", "setting": "HL-60 cells", "result": 0.9, "unit": "µg/mL"}
    ]}
  ]
}
